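Where inhibition never reached the appropriate level, the endpoint shown equals the highest concentration tested. Otherwise, values were interpolated linearly from a five-concentration, 48-hour dose response in 96-well plates. GI50 is the concentration that inhibits growth by half. Definition used: TGI = concentration required for complete inhibition of growth.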
Legend:
Experiment in all cases: NCI tumour cell line growth inhibition, 48 h
[1] = tested on: BT-549 breast
[2] = tested on: HCT-116 colon
[3] = tested on: MCF7 breast
[4] = tested on: RXF 393 renal
[5] = tested on: SK-OV-3 ovarian
[6] = tested on: SN12C renal
[7] = tested on: SNB-19 CNS
[8] = tested on: T-47D breast
[9] = tested on: DMS 273 small cell lung
[10] = tested on: KM20L2 colon

C[C@]12CC[C@@H]3c4cc(OC(F)F)c(O)cc4CC[C@H]3[C@@H]1CC[C@@H]2OS(N)(=O)=O
GI50 [1]: 2.8 µM | TGI [1]: 45.3 µM | GI50 [2]: 0.419 µM | TGI [2]: 18.9 µM | GI50 [3]: 0.566 µM | TGI [3]: 47.1 µM | GI50 [4]: 0.315 µM | TGI [4]: 6.42 µM | GI50 [5]: 2.77 µM | TGI [5]: 98 µM | GI50 [6]: 1.02 µM | TGI [6]: 70.5 µM | GI50 [7]: 0.551 µM | TGI [7]: > 100 µM | GI50 [8]: 1.02 µM | TGI [8]: 50.7 µM

COc1c(C)cc(O)cc1C=O
TGI [9]: > 100 µM | TGI [4]: > 100 µM | TGI [5]: > 100 µM | TGI [6]: > 100 µM | TGI [7]: > 100 µM

COC1C(CO)OC(n2c3ccccc3c3c4c(c5c6ccccc6[nH]c5c32)C(=O)NC4=O)C(O)C1O (stereo unspecified)
GI50 [1]: 0.12 µM | TGI [1]: 1.85 µM | GI50 [2]: 0.016 µM | TGI [2]: 0.146 µM | GI50 [3]: 0.0336 µM | TGI [3]: 2.07 µM | GI50 [4]: 0.114 µM | TGI [4]: 0.877 µM | GI50 [5]: 0.0876 µM | TGI [5]: 2.22 µM | GI50 [6]: < 0.0187 µM | TGI [6]: 0.111 µM | GI50 [7]: 0.0277 µM | TGI [7]: 6.64 µM | GI50 [8]: < 0.0126 µM | TGI [8]: 0.117 µM

CC(=O)Nc1ccccc1-c1nc2ccccc2nc1C
TGI [2]: > 100 µM | TGI [10]: > 100 µM | TGI [5]: > 100 µM | TGI [6]: > 100 µM | TGI [7]: > 100 µM

CCOC(=O)C1SC(=Nc2cccc(Cl)c2C)N=C1C (stereo unspecified)
TGI [2]: 58.1 µM | TGI [10]: 31.3 µM | TGI [4]: > 100 µM | TGI [6]: 35.6 µM | TGI [7]: > 100 µM

CC[C@@H]1[C@@H](C)O[C@@](O)([C@@H](C)[C@H](O)[C@H](C)[C@H]2OC(=O)/C=C/C=C/[C@H](C)[C@@H]([C@@H](C)[C@@H](O)[C@H](C)[C@@]3(O)C[C@@H](O[C@H]4C[C@@H](O)[C@H](O)C(C)O4)[C@H](CC)[C@@H](C)O3)OC(=O)/C=C/C=C/[C@@H]2C)C[C@H]1O[C@@H]1C[C@@H](O)[C@H](O)C(C)O1 (stereo partly specified)
GI50 [1]: 0.0569 µM | TGI [1]: 0.124 µM | GI50 [2]: 0.0688 µM | TGI [2]: 0.165 µM | GI50 [3]: 0.0843 µM | TGI [3]: 0.287 µM | GI50 [4]: 0.0521 µM | TGI [4]: 0.119 µM | GI50 [5]: 0.072 µM | TGI [5]: 0.189 µM | GI50 [6]: 0.0584 µM | TGI [6]: 0.126 µM | GI50 [7]: 0.0731 µM | TGI [7]: 0.212 µM | GI50 [8]: 0.0949 µM | TGI [8]: 0.34 µM

CCN(CC)CCNc1ccc(C)c2sc3cc(Cl)ccc3c(=O)c12
GI50 [1]: 2.36 µM | TGI [1]: 6.95 µM | GI50 [2]: 1.65 µM | TGI [2]: 3.15 µM | GI50 [3]: 1.55 µM | TGI [3]: 3.2 µM | GI50 [4]: 1.57 µM | TGI [4]: 3.05 µM | GI50 [5]: 1.77 µM | TGI [5]: 4.88 µM | GI50 [6]: 1.68 µM | TGI [6]: 3.44 µM | GI50 [7]: 1.74 µM | TGI [7]: 3.51 µM | GI50 [8]: 1.65 µM | TGI [8]: 4.02 µM

CCC(CC)c1nc(Nc2ccc(C(=O)OC)cc2)c2ccccc2n1
GI50 [1]: 31.7 µM | TGI [1]: > 50 µM | GI50 [2]: 12.9 µM | TGI [2]: > 28.6 µM | GI50 [3]: 24.2 µM | TGI [3]: > 50 µM | GI50 [4]: 8.34 µM | TGI [4]: 21.3 µM | GI50 [5]: 9.54 µM | TGI [5]: 19 µM | GI50 [6]: 7.83 µM | TGI [6]: 16.3 µM | GI50 [7]: 8.07 µM | TGI [7]: 15.2 µM | GI50 [8]: 7.88 µM | TGI [8]: 17.5 µM

Nc1c(C(=O)c2ccc(-c3cccnc3)cc2)cnn1-c1ccc(F)cc1
GI50 [1]: > 25 µM | TGI [1]: > 25 µM | GI50 [2]: > 14 µM | TGI [2]: > 25 µM | GI50 [3]: > 25 µM | TGI [3]: > 25 µM | GI50 [4]: 14.5 µM | TGI [4]: > 25 µM | GI50 [5]: > 14.2 µM | TGI [5]: > 23 µM | GI50 [6]: > 19.5 µM | TGI [6]: > 25 µM | GI50 [7]: > 25 µM | TGI [7]: > 25 µM | GI50 [8]: 9.72 µM | TGI [8]: > 21.7 µM

O=C1C(Cl)=C(Sc2nnc3c4ccccc4c4ccccc4c3n2)C(=O)c2ccccc21
TGI [1]: 32.2 µM | TGI [2]: 33.3 µM | TGI [3]: 28.2 µM | TGI [4]: 32 µM | TGI [5]: 55.3 µM | TGI [6]: 33.1 µM | TGI [7]: 36.6 µM | TGI [8]: 19.2 µM

Oc1ccc([Te]CCNCC[Te]c2ccc(O)cc2)cc1
TGI [9]: > 100 µM | TGI [2]: 28.4 µM | TGI [10]: 55.1 µM | TGI [5]: 98.9 µM | TGI [6]: > 100 µM | TGI [7]: > 100 µM

C=CC(=O)NCCSCCCOC1(C(=O)O)CC(O)C(NC(C)=O)C(C(O)C(O)CO)O1 (stereo unspecified)
TGI [9]: > 100 µM | TGI [2]: > 100 µM | TGI [4]: > 100 µM | TGI [5]: > 100 µM | TGI [6]: > 100 µM | TGI [7]: > 100 µM

COc1ccc(N=Cc2c(O)ccc3c2oc2cc(Cl)c(O)c(Cl)c23)cc1
GI50 [1]: 13.4 µM | TGI [1]: > 100 µM | GI50 [2]: 21 µM | TGI [2]: 56.9 µM | GI50 [3]: 7.7 µM | TGI [3]: 44.1 µM | GI50 [4]: 14.2 µM | TGI [4]: 31.4 µM | GI50 [5]: 15.9 µM | TGI [5]: 49.5 µM | GI50 [6]: 19.3 µM | TGI [6]: 63.6 µM | GI50 [7]: 13.9 µM | TGI [7]: 79.8 µM | GI50 [8]: 7.65 µM | TGI [8]: 46.4 µM

CC(C)(C)N1CCC1CN (stereo unspecified)
GI50 [1]: > 100 µM | TGI [1]: > 100 µM | GI50 [2]: > 100 µM | TGI [2]: > 100 µM | GI50 [3]: > 100 µM | TGI [3]: > 100 µM | GI50 [4]: > 100 µM | TGI [4]: > 100 µM | GI50 [5]: > 100 µM | TGI [5]: > 100 µM | GI50 [6]: > 100 µM | TGI [6]: > 100 µM | GI50 [7]: > 100 µM | TGI [7]: > 100 µM | GI50 [8]: > 100 µM | TGI [8]: > 100 µM

COc1cccc2ccc(C(=O)c3ccccc3)nc12
TGI [9]: > 100 µM | TGI [2]: > 100 µM | TGI [10]: > 100 µM | TGI [6]: > 100 µM

CN1C(=O)CCC2[C@@H]3CC=C4C[C@@H](O)CC[C@]4(C)C3CC[C@@]21C (stereo partly specified)
TGI [9]: > 100 µM | TGI [2]: > 100 µM | TGI [10]: > 100 µM | TGI [4]: > 100 µM | TGI [5]: > 100 µM

CCCCCCCCOCC(O)COC(C)C (stereo unspecified)
TGI [9]: 34.7 µM | TGI [2]: > 100 µM | TGI [10]: > 100 µM | TGI [5]: > 100 µM | TGI [6]: 73.1 µM | TGI [7]: > 100 µM

COc1ccc(C(CCC(C)=O)C(=O)O)cc1OC (stereo unspecified)
TGI [9]: > 100 µM | TGI [2]: > 100 µM | TGI [10]: > 100 µM | TGI [4]: > 100 µM | TGI [6]: > 100 µM | TGI [7]: > 100 µM

COC(=O)CCC(NC(=S)N/N=C/c1ccccn1)C(=O)OC (stereo unspecified)
TGI [2]: > 100 µM | TGI [10]: > 100 µM | TGI [4]: > 100 µM | TGI [5]: > 100 µM | TGI [6]: > 100 µM | TGI [7]: > 100 µM

O=[N+]([O-])c1ccc(C2CC(c3ccccc3Cl)=Nc3ccccc3S2)cc1 (stereo unspecified)
TGI [9]: 33.8 µM | TGI [2]: 4.92 µM | TGI [10]: 46.6 µM | TGI [4]: 12.6 µM | TGI [5]: > 85.3 µM | TGI [6]: 17.4 µM

— PubChem BioAssay (NCI)
